Measurements taken from ChEMBL document CHEMBL1124036 (J Med Chem, 1988).

How the values were obtained:
L1210 = test: Concentration required to produce 50% reduction in the rate of proliferation of L1210 cells; assay type: functional, cell-based; conditions: Mus musculus
HEp-2 = test: Concentration required to produce 50% reduction in cloning of H.Ep.No.2 cells by 50%; assay type: functional, cell-based; conditions: Homo sapiens

Row | SMILES | IC50 (L1210) [µM] | IC50 (HEp-2) [µM]
1 | Nc1nc(F)nc2c1ncn2C1O[C@H](CO)[C@H](O)[C@H]1Cl (stereo partly specified) | 60 | 100
2 | Nc1nc(F)nc2c1ncn2C1O[C@H](CO)[C@H](O)[C@H]1N (stereo partly specified) | 120 | 12
3 | Nc1nc(Cl)nc2c1ncn2C1O[C@H](CO)[C@H](O)[C@H]1I (stereo partly specified) | > 100 | > 100
4 | [N-]=[N+]=N[C@H]1C(n2cnc3c(N)nc(F)nc32)O[C@H](CO)[C@@H]1O (stereo partly specified) | 100 | 29
5 | Nc1nc(Cl)nc2c1ncn2C1O[C@H](CO)[C@H](O)[C@H]1N (stereo partly specified) | > 120 | 80
6 | Nc1nc(Cl)nc2c1ncn2C1O[C@H](CO)[C@H](O)[C@H]1Cl (stereo partly specified) | > 120 | > 120
7 | Nc1nc(Cl)nc2c1ncn2C1O[C@H](CO)[C@H](O)[C@H]1Br (stereo partly specified) | > 110 | > 110
8 | [N-]=[N+]=N[C@H]1C(n2cnc3c(N)nc(Cl)nc32)O[C@H](CO)[C@@H]1O (stereo partly specified) | > 120 | > 120
